Laboratory results published in patent publication EP4722212A1, “NOVEL COMPOUND FOR INHIBITING PROTEIN KINASES AND PHARMACEUTICAL COMPOSITION COMPRISING SAME” (Magicbullettherapeutics Co., Ltd., priority 2023, dated 2024).
Read-outs that look alike come from different tables or passages of the source.

Legend:
Test in all cases: Kinase panel
Type in all cases: biochemical
[1] = target: ALK2/ACVR1 (Homo sapiens, UniProt Q04771); details: ALK2/ACVR1, 1 µM; read-out: residual enzyme activity
Summary of the method: (§1)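 In this biochemical panel, each kinase was exposed to test compound at 1 µM and its leftover catalytic activity expressed as residual activity. Selection required at least 60% inhibition.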

[2] = target: BRAF (Homo sapiens, UniProt P15056); details: read-out: residual enzyme activity
Summary of the method: as §1

[3] = target: CAMK1B (Homo sapiens, UniProt Q6P2M8); details: read-out: residual enzyme activity
Summary of the method: as §1

[4] = target: CDK5/P25 (Homo sapiens, UniProt Q00535); details: CDK5/P25, 1 µM; read-out: residual enzyme activity
Summary of the method: as §1

[5] = target: CHK1 (Homo sapiens, UniProt O14757); details: CHK1, 1 µM; read-out: residual enzyme activity
Summary of the method: as §1

[6] = target: CHK2 (Homo sapiens, UniProt O96017); details: CHK2, 1 µM; read-out: residual enzyme activity
Summary of the method: as §1

[7] = target: DCAMKL1 (Homo sapiens, UniProt O15075); details: DCAMKL1, 1 µM; read-out: residual enzyme activity
Summary of the method: as §1

[8] = target: DMPK (Homo sapiens, UniProt Q09013); details: read-out: residual enzyme activity
Summary of the method: as §1

[9] = target: DYRK3 (Homo sapiens, UniProt O43781); details: DYRK3, 1 µM; read-out: residual enzyme activity
Summary of the method: as §1

[10] = target: FLT3 (Homo sapiens, UniProt P36888); details: FLT3, 1 µM; read-out: residual enzyme activity
Summary of the method: as §1

[11] = target: FYN (Homo sapiens, UniProt P06241); details: read-out: residual enzyme activity
Summary of the method: as §1

[12] = target: HIPK2 (Homo sapiens, UniProt Q9H2X6); details: HIPK2, 1 µM; read-out: residual enzyme activity
Summary of the method: as §1

[13] = target: IRR/INSRR (Homo sapiens, UniProt P14616); details: read-out: residual enzyme activity
Summary of the method: as §1

[14] = target: ITK (Homo sapiens, UniProt Q08881); details: read-out: residual enzyme activity
Summary of the method: as §1

[15] = target: JAK1 (Homo sapiens, UniProt P23458); details: JAK1, 1 µM; read-out: residual enzyme activity
Summary of the method: as §1

[16] = target: KSR1 (Homo sapiens, UniProt Q8IVT5); details: KSR1, 1 µM; read-out: residual enzyme activity
Summary of the method: as §1

[17] = target: LIMK2 (Homo sapiens, UniProt P53671); details: LIMK2, 1 µM; read-out: residual enzyme activity
Summary of the method: as §1

[18] = target: LKB1 (Homo sapiens, UniProt Q15831); details: LKB1, 1 µM; read-out: residual enzyme activity
Summary of the method: as §1

[19] = target: LYN B (Homo sapiens, UniProt P07948); details: read-out: residual enzyme activity
Summary of the method: as §1

[20] = target: MAPKAPKS/PRAK (Homo sapiens, UniProt Q8IW41); details: read-out: residual enzyme activity
Summary of the method: as §1

[21] = target: MLK3/MAP3K11 (Homo sapiens, UniProt Q16584); details: MLK3/MAP3K11, 1 µM; read-out: residual enzyme activity
Summary of the method: as §1

[22] = target: MST2/STK3 (Homo sapiens, UniProt Q13188); details: MST2/STK3, 1 µM; read-out: residual enzyme activity
Summary of the method: as §1

[23] = target: NEK7 (Homo sapiens, UniProt Q8TDX7); details: NEK7, 1 µM; read-out: residual enzyme activity
Summary of the method: as §1

[24] = target: PASK (Homo sapiens, UniProt Q96RG2); details: read-out: residual enzyme activity
Summary of the method: as §1

[25] = target: ROCK2 (Homo sapiens, UniProt O75116); details: ROCK2, 1 µM; read-out: residual enzyme activity
Summary of the method: as §1

[26] = target: SRPK2 (Homo sapiens, UniProt P78362); details: SRPK2, 1 µM; read-out: residual enzyme activity
Summary of the method: as §1

[27] = target: TAK1 (Homo sapiens, UniProt O43318); details: TAK1, 1 µM; read-out: residual enzyme activity
Summary of the method: as §1

[28] = target: TEC (Homo sapiens, UniProt P42680); details: read-out: residual enzyme activity
Summary of the method: as §1

[29] = target: TGFBR2 (Homo sapiens, UniProt P37173); details: TGFBR2, 1 µM; read-out: residual enzyme activity
Summary of the method: as §1

[30] = target: TNK1 (Homo sapiens, UniProt Q13470); details: TNK1, 1 µM; read-out: residual enzyme activity
Summary of the method: as §1

[31] = target: TRKB (Homo sapiens, UniProt Q16620); details: read-out: residual enzyme activity
Summary of the method: as §1

[32] = target: TRKC (Homo sapiens, UniProt Q16288); details: read-out: residual enzyme activity
Summary of the method: as §1

[33] = target: TSSK3/STK22C (Homo sapiens, UniProt Q96PN8); details: read-out: residual enzyme activity
Summary of the method: as §1

[34] = target: ULK2 (Homo sapiens, UniProt Q8IYT8); details: ULK2, 1 µM; read-out: residual enzyme activity
Summary of the method: as §1

[35] = target: WNK3 (Homo sapiens, UniProt Q9BYP7); details: WNK3, 1 µM; read-out: residual enzyme activity
Summary of the method: as §1

Chain of TEC (P42680 whole entry): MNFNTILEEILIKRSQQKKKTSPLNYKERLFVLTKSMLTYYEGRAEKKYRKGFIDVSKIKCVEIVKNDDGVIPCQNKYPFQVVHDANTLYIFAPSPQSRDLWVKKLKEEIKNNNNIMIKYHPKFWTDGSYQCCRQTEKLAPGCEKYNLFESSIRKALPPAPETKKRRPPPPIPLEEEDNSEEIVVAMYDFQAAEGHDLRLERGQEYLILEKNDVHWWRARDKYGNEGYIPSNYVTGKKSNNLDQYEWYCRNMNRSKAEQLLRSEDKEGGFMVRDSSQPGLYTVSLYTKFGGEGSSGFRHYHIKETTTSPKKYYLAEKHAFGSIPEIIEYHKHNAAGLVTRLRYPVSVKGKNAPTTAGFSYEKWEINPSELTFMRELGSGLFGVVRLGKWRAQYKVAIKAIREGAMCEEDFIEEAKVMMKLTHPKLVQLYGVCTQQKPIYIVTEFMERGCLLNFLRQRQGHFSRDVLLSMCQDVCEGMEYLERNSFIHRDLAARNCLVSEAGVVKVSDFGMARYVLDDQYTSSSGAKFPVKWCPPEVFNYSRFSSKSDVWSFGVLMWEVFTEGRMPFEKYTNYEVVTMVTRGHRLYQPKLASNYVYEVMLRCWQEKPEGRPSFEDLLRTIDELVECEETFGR
Chain of DYRK3 (O43781 whole entry, species assumed): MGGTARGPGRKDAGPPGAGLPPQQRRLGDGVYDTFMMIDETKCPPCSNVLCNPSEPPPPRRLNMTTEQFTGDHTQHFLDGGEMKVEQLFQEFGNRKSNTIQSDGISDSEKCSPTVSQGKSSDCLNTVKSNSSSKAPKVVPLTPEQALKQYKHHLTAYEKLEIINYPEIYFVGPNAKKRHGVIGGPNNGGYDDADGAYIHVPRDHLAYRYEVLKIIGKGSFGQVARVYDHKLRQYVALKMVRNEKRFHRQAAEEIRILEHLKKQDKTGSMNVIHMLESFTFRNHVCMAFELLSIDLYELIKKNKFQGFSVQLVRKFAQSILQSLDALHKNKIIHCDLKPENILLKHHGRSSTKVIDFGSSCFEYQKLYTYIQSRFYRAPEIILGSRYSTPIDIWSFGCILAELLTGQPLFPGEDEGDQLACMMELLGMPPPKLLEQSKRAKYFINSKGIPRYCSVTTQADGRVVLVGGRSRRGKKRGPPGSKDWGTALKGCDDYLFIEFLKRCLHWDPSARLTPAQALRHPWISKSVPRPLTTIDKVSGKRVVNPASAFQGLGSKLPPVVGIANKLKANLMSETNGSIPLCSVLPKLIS
Chain of MST2/STK3 (Q13188 whole entry): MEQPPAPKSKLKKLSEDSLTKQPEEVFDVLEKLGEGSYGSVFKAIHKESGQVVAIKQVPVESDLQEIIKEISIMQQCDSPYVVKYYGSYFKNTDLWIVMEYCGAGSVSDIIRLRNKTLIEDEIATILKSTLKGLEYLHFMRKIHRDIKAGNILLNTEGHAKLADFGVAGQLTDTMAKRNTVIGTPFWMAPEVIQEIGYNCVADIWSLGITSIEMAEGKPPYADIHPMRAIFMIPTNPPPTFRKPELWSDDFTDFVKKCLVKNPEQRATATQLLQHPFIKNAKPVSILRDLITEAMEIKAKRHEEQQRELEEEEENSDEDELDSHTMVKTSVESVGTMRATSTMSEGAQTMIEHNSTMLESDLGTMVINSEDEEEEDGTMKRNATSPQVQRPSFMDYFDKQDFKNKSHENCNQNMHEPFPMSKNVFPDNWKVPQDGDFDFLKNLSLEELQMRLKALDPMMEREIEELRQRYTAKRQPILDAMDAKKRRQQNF
Chain of CHK1 (O14757 whole entry, species assumed): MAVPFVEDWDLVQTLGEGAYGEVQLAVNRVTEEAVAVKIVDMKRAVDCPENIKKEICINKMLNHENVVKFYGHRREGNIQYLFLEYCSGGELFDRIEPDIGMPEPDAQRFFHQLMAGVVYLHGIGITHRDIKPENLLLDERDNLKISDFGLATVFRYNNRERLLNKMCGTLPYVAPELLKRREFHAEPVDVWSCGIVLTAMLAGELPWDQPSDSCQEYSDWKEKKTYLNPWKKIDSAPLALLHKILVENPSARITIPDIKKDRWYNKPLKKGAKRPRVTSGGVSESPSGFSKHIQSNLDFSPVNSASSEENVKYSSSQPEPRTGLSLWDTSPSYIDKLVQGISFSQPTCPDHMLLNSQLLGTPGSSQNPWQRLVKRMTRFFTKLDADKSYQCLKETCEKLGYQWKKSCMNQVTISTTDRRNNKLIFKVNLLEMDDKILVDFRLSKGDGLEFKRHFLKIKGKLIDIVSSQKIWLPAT
Chain of TAK1 (O43318 1-303 limits assumed): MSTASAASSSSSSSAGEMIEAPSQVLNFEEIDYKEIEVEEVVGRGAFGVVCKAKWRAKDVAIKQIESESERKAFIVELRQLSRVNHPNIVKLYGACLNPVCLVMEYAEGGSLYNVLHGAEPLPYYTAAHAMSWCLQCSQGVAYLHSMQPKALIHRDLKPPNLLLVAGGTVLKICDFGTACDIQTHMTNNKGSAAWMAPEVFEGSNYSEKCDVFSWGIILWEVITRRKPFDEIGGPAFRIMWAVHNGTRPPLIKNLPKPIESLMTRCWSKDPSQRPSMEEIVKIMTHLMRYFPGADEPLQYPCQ
Chain of TNK1 (Q13470 whole entry, species assumed): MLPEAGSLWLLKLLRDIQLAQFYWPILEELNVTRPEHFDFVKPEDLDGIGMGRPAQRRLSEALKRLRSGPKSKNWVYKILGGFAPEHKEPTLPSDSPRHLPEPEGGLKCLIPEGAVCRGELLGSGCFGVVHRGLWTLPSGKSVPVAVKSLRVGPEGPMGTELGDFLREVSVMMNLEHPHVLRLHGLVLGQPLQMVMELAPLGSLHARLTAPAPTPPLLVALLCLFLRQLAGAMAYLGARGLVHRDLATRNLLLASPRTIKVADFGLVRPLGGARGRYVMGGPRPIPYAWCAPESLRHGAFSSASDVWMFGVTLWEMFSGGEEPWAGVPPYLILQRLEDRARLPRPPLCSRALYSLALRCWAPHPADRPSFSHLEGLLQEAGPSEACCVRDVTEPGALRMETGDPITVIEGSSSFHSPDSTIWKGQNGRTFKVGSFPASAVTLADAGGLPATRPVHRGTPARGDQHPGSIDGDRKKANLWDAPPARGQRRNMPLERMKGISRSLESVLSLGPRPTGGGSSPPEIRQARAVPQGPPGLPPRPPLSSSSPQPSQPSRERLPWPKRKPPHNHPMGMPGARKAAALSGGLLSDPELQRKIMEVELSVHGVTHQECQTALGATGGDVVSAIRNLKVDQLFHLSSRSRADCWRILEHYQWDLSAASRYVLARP
Chain of ROCK2 (O75116 whole entry, species assumed): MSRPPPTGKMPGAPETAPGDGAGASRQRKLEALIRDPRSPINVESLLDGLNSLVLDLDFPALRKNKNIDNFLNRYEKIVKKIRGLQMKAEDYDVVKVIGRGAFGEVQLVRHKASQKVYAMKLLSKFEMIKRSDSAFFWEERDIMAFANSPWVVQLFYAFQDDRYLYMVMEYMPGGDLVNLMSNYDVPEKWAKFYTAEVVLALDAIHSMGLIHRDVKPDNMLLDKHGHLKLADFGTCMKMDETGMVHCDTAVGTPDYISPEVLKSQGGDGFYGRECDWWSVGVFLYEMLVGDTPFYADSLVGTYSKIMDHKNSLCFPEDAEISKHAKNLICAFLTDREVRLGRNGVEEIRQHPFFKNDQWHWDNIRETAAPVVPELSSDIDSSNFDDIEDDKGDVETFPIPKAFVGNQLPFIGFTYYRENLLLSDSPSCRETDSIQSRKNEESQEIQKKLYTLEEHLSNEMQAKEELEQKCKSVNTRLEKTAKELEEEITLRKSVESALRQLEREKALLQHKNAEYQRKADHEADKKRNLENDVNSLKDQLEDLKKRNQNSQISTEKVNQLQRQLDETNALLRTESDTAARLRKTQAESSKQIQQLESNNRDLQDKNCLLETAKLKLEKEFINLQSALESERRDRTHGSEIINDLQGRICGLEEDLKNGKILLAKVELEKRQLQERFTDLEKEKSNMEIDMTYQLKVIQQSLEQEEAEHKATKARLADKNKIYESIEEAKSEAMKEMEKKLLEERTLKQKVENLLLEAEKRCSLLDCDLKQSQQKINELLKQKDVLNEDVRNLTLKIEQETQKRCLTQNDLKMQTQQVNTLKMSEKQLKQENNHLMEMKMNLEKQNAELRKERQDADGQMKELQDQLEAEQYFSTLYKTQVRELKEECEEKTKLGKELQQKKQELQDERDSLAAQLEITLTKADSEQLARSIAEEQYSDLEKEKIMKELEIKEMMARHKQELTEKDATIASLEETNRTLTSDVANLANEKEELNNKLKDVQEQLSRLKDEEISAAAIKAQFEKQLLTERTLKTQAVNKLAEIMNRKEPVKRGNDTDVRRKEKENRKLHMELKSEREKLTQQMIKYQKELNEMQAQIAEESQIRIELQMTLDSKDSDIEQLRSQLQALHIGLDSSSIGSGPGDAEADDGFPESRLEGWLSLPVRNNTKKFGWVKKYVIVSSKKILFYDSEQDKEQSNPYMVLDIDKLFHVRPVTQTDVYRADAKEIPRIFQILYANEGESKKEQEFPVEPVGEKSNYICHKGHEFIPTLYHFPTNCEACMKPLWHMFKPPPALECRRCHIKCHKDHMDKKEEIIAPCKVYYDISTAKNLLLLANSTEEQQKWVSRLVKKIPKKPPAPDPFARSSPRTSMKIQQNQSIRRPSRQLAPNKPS
Chain of TSSK3/STK22C (Q96PN8 whole entry): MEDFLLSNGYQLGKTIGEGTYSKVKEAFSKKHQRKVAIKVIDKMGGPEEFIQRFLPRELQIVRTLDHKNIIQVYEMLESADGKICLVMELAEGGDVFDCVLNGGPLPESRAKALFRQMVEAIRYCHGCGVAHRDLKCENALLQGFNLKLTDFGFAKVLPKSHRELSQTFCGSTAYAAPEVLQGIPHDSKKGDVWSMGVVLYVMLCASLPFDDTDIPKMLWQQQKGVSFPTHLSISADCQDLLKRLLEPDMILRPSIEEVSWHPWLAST

With `Cc1cn(-c2cc(C(=O)Nc3ccc(C)c(N4Cc5cnc(NC6CC6)nc5C5(CC5)C4=O)c3)cc(C(F)(F)F)c2)cn1` [Compound 8, N-(3-(2'-(cyclopropylamino)-7'-oxo-5'H-spiro[cyclopropane-1,8'-pyrido[4,3-d]pyrimidine]-6'(7'H)-yl)-4-methylphenyl)-3-(4-methyl-1H-imidazol-1-yl)-5-(trifluoromethyl)benzamide] the remaining activity at 1 µM [1] was greater than 40%, the remaining activity at 1 µM [2] was no more than 40% and the remaining activity at 1 µM ([3]; CAMK1B) was greater than 40%. For the same molecule, the remaining activity at 1 µM [4] was greater than 40%, the remaining activity at 1 µM [5] was greater than 40% and the remaining activity at 1 µM [6] was greater than 40%. The remaining activity at 1 µM [7] was greater than 40%, the remaining activity at 1 µM [8] was greater than 40% and the remaining activity at 1 µM [9] was greater than 40%. The remaining activity at 1 µM [10] was no more than 40%, the remaining activity at 1 µM [11] was no more than 40% and the remaining activity at 1 µM [12] was greater than 40%. For the same molecule, the remaining activity at 1 µM [13] was greater than 40%, the remaining activity at 1 µM [14] was greater than 40% and the remaining activity at 1 µM [15] was no more than 40%. The remaining activity at 1 µM [16] was greater than 40%, the remaining activity at 1 µM [17] was no more than 40% and the remaining activity at 1 µM [18] was greater than 40%. The remaining activity at 1 µM [19] was no more than 40%, the remaining activity at 1 µM [20] was greater than 40% and the remaining activity at 1 µM [21] was no more than 40%. It also gave a remaining activity at 1 µM [22] greater than 40%, a remaining activity at 1 µM [23] greater than 40% and a remaining activity at 1 µM [24] greater than 40%. It also gave a remaining activity at 1 µM [25] greater than 40%, a remaining activity at 1 µM [26] greater than 40% and a remaining activity at 1 µM [27] of no more than 40%. For the same molecule, the remaining activity at 1 µM [28] was no more than 40%, the remaining activity at 1 µM [29] was greater than 40% and the remaining activity at 1 µM [30] was no more than 40%. The remaining activity at 1 µM [31] was no more than 40%, the remaining activity at 1 µM [32] was no more than 40% and the remaining activity at 1 µM [33] was greater than 40%. It also gave a remaining activity at 1 µM [34] greater than 40% and a remaining activity at 1 µM [35] greater than 40%.
For `Cc1ccc(Nc2ncc3c(n2)C2(CC2)C(=O)N(c2cc(NC(=O)c4cccc(C(F)(F)F)c4)ccc2C)C3)cn1` [Compound 51, N-(4-methyl-3-(2'-((6-methylpyridin-3-yl)amino)-7'-oxo-5'H-spiro[cyclopropane-1,8'-pyrido[4,3-d]pyrimidine]-6'(7'H)-yl)phenyl)-3-(trifluoromethyl)benzamide], the remaining activity at 1 µM [1] was greater than 40%, the remaining activity at 1 µM [2] was no more than 40% and the remaining activity at 1 µM ([3]; CAMK1b) was greater than 40%. For the same molecule, the remaining activity at 1 µM [4] was greater than 40%, the remaining activity at 1 µM [5] was greater than 40% and the remaining activity at 1 µM [6] was greater than 40%. For the same molecule, the remaining activity at 1 µM [7] was greater than 40%, the remaining activity at 1 µM [8] was greater than 40% and the remaining activity at 1 µM [9] was greater than 40%. It also gave a remaining activity at 1 µM [10] of no more than 40%, a remaining activity at 1 µM [11] of no more than 40% and a remaining activity at 1 µM [12] greater than 40%. For the same molecule, the remaining activity at 1 µM [13] was greater than 40%, the remaining activity at 1 µM [14] was greater than 40% and the remaining activity at 1 µM [15] was no more than 40%. The remaining activity at 1 µM [16] was greater than 40%, the remaining activity at 1 µM [17] was no more than 40% and the remaining activity at 1 µM [18] was greater than 40%. The remaining activity at 1 µM [19] was no more than 40%, the remaining activity at 1 µM [20] was greater than 40% and the remaining activity at 1 µM [21] was no more than 40%. It also gave a remaining activity at 1 µM [22] greater than 40%, a remaining activity at 1 µM [23] greater than 40% and a remaining activity at 1 µM [24] greater than 40%. For the same molecule, the remaining activity at 1 µM [25] was greater than 40%, the remaining activity at 1 µM [26] was greater than 40% and the remaining activity at 1 µM [27] was no more than 40%. For the same molecule, the remaining activity at 1 µM [28] was no more than 40%, the remaining activity at 1 µM [29] was greater than 40% and the remaining activity at 1 µM [30] was no more than 40%. The remaining activity at 1 µM [31] was no more than 40%, the remaining activity at 1 µM [32] was no more than 40% and the remaining activity at 1 µM [33] was greater than 40%. The remaining activity at 1 µM [34] was greater than 40% and the remaining activity at 1 µM [35] was greater than 40%.
